# Source: PMC8934569 (Cancer chemotherapy and pharmacology, 2021)
# Assays:
# [1] = Veliparib plasma pharmacokinetics; format: in vivo, human
# [2] = tested on: metastatic malignancy; experiment: Tumor response by RECIST version 1.1; format: in vivo, human
# [3] = tested on: metastatic breast cancer; conditions: veliparib with oral cyclophosphamide; cited from earlier work
# [4] = Phase I dose escalation
# [5] = tested on: γH2AX in circulating tumor cells (CTCs); experiment: Total CTCs and γH2AX-positive CTCs; format: in vivo, human; conditions: veliparib and AC
# [6] = tested on: γH2AX in tumor; experiment: γH2AX nuclear area positive score; format: in vivo, human; conditions: veliparib and AC, paired biopsy, baseline <5%
# [7] = tested on: recombinant cytochrome P450s; conditions: cited from earlier work
# [8] = tested on: MX-1 BRCA1 deficient breast cancer model; conditions: cyclophosphamide 12.5 mg/kg/day on days 20, 14, and 27 and veliparib 25 mg/kg/day; cited from earlier work
# [9] = Drug-related adverse events graded by NCI CTCAE version 4.0; format: in vivo, human
# [10] = Group 1 N=31: veliparib Days 1-4 + cyclophosphamide Day 3, all tumor types
# [11] = Group 2 N=22: veliparib Days 1-4 + AC Day 3, all tumor types
# [12] = Group 3 N=14: veliparib 100 mg every 12 h Days 1-7 + AC Day 1
# [13] = Group 4 N=13: veliparib 100 mg every 12 h Days 1-14 + AC Day 1
# [14] = Group 1 N=31: veliparib Days 1-4 + cyclophosphamide Day 3
# [15] = Group 2 N=22: veliparib Days 1-4 + AC Day 3
smiles,measurement,setting,value
"C[C@]1(c2nc3c(C(N)=O)cccc3[nH]2)CCCN1 [veliparib, 2-[(R)-2-methylpyrrolidin-2-yl]-1H-benzimidazole-4-carboxamide]",AUC0-7 on C1D3 (with combination therapy) compared to C1D1 (alone),[1]; Groups 1 and 2,significantly higher
same,Cmax on C1D3 (with combination therapy) compared to C1D1 (alone),[1]; Groups 1 and 2,comparable
same,Dose proportionality of Cmax and AUC0-7,"[1]; veliparib administered alone, 50 to 200 mg dose range, C1D1",approximately dose-proportional increases
same,Overall clinical benefit rate (CBR),[2]; Group 1 (veliparib + cyclophosphamide),13%
same,Complete response (best response achieved),[2]; [10],0 (0) n (%)
same,Stable disease ≥3 months (best response achieved),[2]; [10],3 (10) n (%)
same,Complete response (best response achieved),[2]; [11],0 (0) n (%)
same,Partial response (best response achieved),[2]; [11],4 (18) n (%)
same,Stable disease ≥3 months (best response achieved),[2]; [11],5 (23) n (%)
same,Complete response (best response achieved),[2]; [12],0 (0) n (%)
same,Partial response (best response achieved),[2]; [12],2 (14) n (%)
same,Stable disease ≥3 months (best response achieved),[2]; [12],4 (29) n (%)
same,Complete response (best response achieved),[2]; [13],0 (0) n (%)
same,Partial response (best response achieved),[2]; [13],5 (38) n (%)
same,Stable disease ≥3 months (best response achieved),[2]; [13],1 (8) n (%)
same,Objective response,[2]; V and AC treated groups (11/49),22%
same,Overall clinical benefit rate,[2]; all groups (25/80),31%
same,Patients with a BRCA1/2 mutation noted to have PRs,[2]; among the 59 metastatic breast cancer patients treated,5 patients
same,Clinical benefit,[3],19.2%
same,MTD or recommended phase II dose of veliparib with AC,[4]; Group 2: Days 1-4 with AC 60/600 mg/m^2 Day 3 every 21 days,100 mg every 12 h
same,No. of Pts with DLTS,"[4]; Group 3 Level 1b: veliparib 100 mg every 12 h Days 1-7 + cyclophosphamide 600 mg/m^2 + doxorubicin 60 mg/m^2 Day 1, n=14",0
same,No. of Pts with DLTS,"[4]; Group 4 Level 1b: veliparib 100 mg every 12 h Days 1-14 + cyclophosphamide 600 mg/m^2 + doxorubicin 60 mg/m^2 Day 1, n=13",0
same,Change in percentage of γH2AX-positive CTCs from Day 1 to Day 14,"[5]; groups 3 and 4 combined, p =0.0006",significant increase
same,Change in CTCs from Day 1 to Day 7,"[5]; groups 3 and 4 combined, p =0.0007",significant decrease
same,Change in CTCs from Day 1 to Day 14,"[5]; groups 3 and 4 combined, p =0.0009",significant decrease
same,Change in percentage of γH2AX-positive CTCs from Day 1 to Day 7,"[5]; groups 3 and 4 combined, p =0.016",significant increase
same,Patients in whom γH2AX-positive CTCs ≥ 50% persisted to day 14,"[5]; groups 3 and 4, cycle 1",10 patients
same,γH2AX nuclear area positive score (%NAP) after treatment,[6]; patient with partial response,3.23%
same,γH2AX nuclear area positive score (%NAP) after treatment,[6]; patient with progressive disease,10.96%
same,γH2AX nuclear area positive score (%NAP) after treatment,[6]; patient with stable disease,5.2%
same,γH2AX nuclear area positive score (%NAP) after treatment,[6]; response could not be assessed,4.5%
same,P450 involvement in incubations with recombinant cytochrome P450s,"[7]; known when the study was developed, no reference given","potential involvement of CYP1A1, 2D6, 2C19, and 3A4"
same,Metabolizing enzymes,"[7]; only partially by CYP1A2, 2C19 and 3A4",primarily metabolized by CYP2D6
same,Tumor effect of the combination,[8],tumor regression
same,"Anemia, All Grades",[9]; [14],8 (26) n (%)
same,"Anemia, Gr 3",[9]; [14],2 (6) n (%)
same,"Anemia, Gr 4",[9]; [14],0 (0) n (%)
same,"Anorexia, All Grades",[9]; [14],0 (0) n (%)
same,"Anorexia, Gr 3",[9]; [14],0 (0) n (%)
same,"Anorexia, Gr 4",[9]; [14],0 (0) n (%)
same,"Dehydration, All Grades",[9]; [14],0 (0) n (%)
same,"Dehydration, Gr 3",[9]; [14],0 (0) n (%)
same,"Dehydration, Gr 4",[9]; [14],0 (0) n (%)
same,"Fatigue, All Grades",[9]; [14],12 (39) n (%)
same,"Fatigue, Gr 3",[9]; [14],1 (3) n (%)
same,"Fatigue, Gr 4",[9]; [14],0 (0) n (%)
same,"Febrile neutropenia, All Grades",[9]; [14],1 (3) n (%)
same,"Febrile neutropenia, Gr 3",[9]; [14],1 (3) n (%)
same,"Febrile neutropenia, Gr 4",[9]; [14],0 (0) n (%)
same,"Hyponatremia, All Grades",[9]; [14],0 (0) n (%)
same,"Hyponatremia, Gr 3",[9]; [14],0 (0) n (%)
same,"Hyponatremia, Gr 4",[9]; [14],0 (0) n (%)
same,"Hypophosphatemia, All Grades",[9]; [14],1 (3) n (%)
same,"Hypophosphatemia, Gr 3",[9]; [14],1 (3) n (%)
same,"Hypophosphatemia, Gr 4",[9]; [14],0 (0) n (%)
same,"Hypotension, All Grades",[9]; [14],1 (3) n (%)
same,"Hypotension, Gr 3",[9]; [14],1 (3) n (%)
same,"Hypotension, Gr 4",[9]; [14],0 (0) n (%)
same,"Lymphocyte count decreased, All Grades",[9]; [14],8 (26) n (%)
same,"Lymphocyte count decreased, Gr 3",[9]; [14],4 (13) n (%)
same,"Lymphocyte count decreased, Gr 4",[9]; [14],2 (6) n (%)
same,"Nausea, All Grades",[9]; [14],5 (16) n (%)
same,"Nausea, Gr 3",[9]; [14],0 (0) n (%)
same,"Nausea, Gr 4",[9]; [14],0 (0) n (%)
same,"Neutrophil count decreased, All Grades",[9]; [14],11 (35) n (%)
same,"Neutrophil count decreased, Gr 3",[9]; [14],4 (13) n (%)
same,"Neutrophil count decreased, Gr 4",[9]; [14],3 (10) n (%)
same,"Platelet count decreased, All Grades",[9]; [14],5 (16) n (%)
same,"Platelet count decreased, Gr 3",[9]; [14],1 (3) n (%)
same,"Platelet count decreased, Gr 4",[9]; [14],1 (3) n (%)
same,"Sepsis, All Grades",[9]; [14],0 (0) n (%)
same,"Sepsis, Gr 3",[9]; [14],0 (0) n (%)
same,"Sepsis, Gr 4",[9]; [14],0 (0) n (%)
same,"Vomiting, All Grades",[9]; [14],5 (16) n (%)
same,"Vomiting, Gr 3",[9]; [14],0 (0) n (%)
same,"Vomiting, Gr 4",[9]; [14],0 (0) n (%)
same,"White blood cell decreased, All Grades",[9]; [14],9 (29) n (%)
same,"White blood cell decreased, Gr 3",[9]; [14],6 (19) n (%)
same,"White blood cell decreased, Gr 4",[9]; [14],1 (3) n (%)
same,"Anemia, All Grades",[9]; [15],16 (73) n (%)
same,"Anemia, Gr 3",[9]; [15],4 (18) n (%)
same,"Anemia, Gr 4",[9]; [15],0 (0) n (%)
same,"Anorexia, All Grades",[9]; [15],5 (23) n (%)
same,"Anorexia, Gr 3",[9]; [15],0 (0) n (%)
